Patent US6635656B1, “Cytotoxic alkaloids halitulin” (Pharma Mar, S.A., priority 1998, dated 2003)
In brackets after ≈: the same amount, converted by molar mass. Like-named read-outs stand apart in the source and are kept apart here.

What was measured:
P-388 murine leukemia = experiment: Cytotoxicity screening against P-388 cell culture; assay type: cell-based; conditions: Mus musculus, P388; P-388 cells, approximate IC50 from growth vs control wells
Description: (§1) Cell Cultures. Cells were maintained in logarithmic phase of growth in eagle's Minimum Essential Medium, with Earle's Balanced Salts, with […] L-glutamine, with non-essential amino acids, without sodium bicarbonate (EMEM/neaa); supplemented with 10% Fetal Calf Serum (FCS), 10^−2 M sodium bicarbonate and 0,1 g/l penicillin-G+streptomycin sulfate.
(§2) A simple screening procedure has been carried out to determine and compare the antitumor activity of these compounds, using an adapted form of the method described by Bergeron et al. (1984)(1). The antitumor cells employed have been P-388 (suspension culture of a lymphoid neoplasm from DBA/2 mouse), A0549 (monolayer culture of a human lung carcinoma), HT-29 (monolayer culture of a human colon carcinoma) and MEL-28 (monolayer culture of a human melanoma).
(§3) P-388 cells were seeded into 16 mm wells at 1×10^4 cells per well in 1 ml aliquots of MEM 5FCS containing the indicated concentration of drug. A separate set of cultures without drug was seeded as control growth to ensure that cells remained in exponential phase of growth. All a 98% humid atmosphere, an approximately IC50 was determined by comparing the growth in wells with drug to the growth in wells control.

[1] = system: A-549 human lung carcinoma; experiment: Cytotoxicity screening against A-549 cell culture; assay type: cell-based; conditions: A-549 cells, three days of incubation, Crystal Violet
Description: as §1, §2
as §3, with “A-549, HT-29 and MEL-28” for “P-388”, “2×10^4” for “1×10^4”, “10FCS” for “5FCS”, “All determinations were carried out in duplicate. After three days of incubation at 37° C., 10% CO2 in” for “All”, “the wells were stained with 0.1% Crystal Violet. An” for “an”

[2] = system: HT-29 human colon carcinoma; experiment: Cytotoxicity screening against HT-29 cell culture; assay type: cell-based; conditions: HT-29 cells, three days of incubation, Crystal Violet
Description: as §1, §2
as §3, with “A-549, HT-29 and MEL-28” for “P-388”, “2×10^4” for “1×10^4”, “10FCS” for “5FCS”, “All determinations were carried out in duplicate. After three days of incubation at 37° C., 10% CO2 in” for “All”, “the wells were stained with 0.1% Crystal Violet. An” for “an”

MEL-28 human melanoma = experiment: Cytotoxicity screening against MEL-28 cell culture; assay type: cell-based; conditions: SK-MEL-28, 72 h, MEL-28 cells, three days of incubation, Crystal Violet
Description: as §1, §2
as §3, with “A-549, HT-29 and MEL-28” for “P-388”, “2×10^4” for “1×10^4”, “10FCS” for “5FCS”, “All determinations were carried out in duplicate. After three days of incubation at 37° C., 10% CO2 in” for “All”, “the wells were stained with 0.1% Crystal Violet. An” for “an”

[3] = Stability observations (light, air, handling); assay type: physicochemical; conditions: N-oxides, then o-quinolinoquinone, form
Experimental: Halitulin (2) was analyzed for C35H40N4O4 by HREIMS (m/z 580.3054, 100% Δmmu−0.5) confirmed by positive and negative FABMS (m/z 581 and 579, respectively). […] The duplicated part, according to the integration of the proton signals, was determined to be the aromatic portion of the molecule. Comparing the NMR data of the aliphatic part of 2 (Table 1) with haliclorensin (1)^7, together with the COSY, TOCSY, and HMBC data, established their identity. The incorporation of 1 in halitulin was further supported by the two MS fragments at m/z 168 (C11H22N+, 48%) and m/z/399 (MW^+-C12H24N, 90%), resulting from the preferable αβ to the aliphatic nitrogen-atoms^1 fragmentation at C-13,14 and C-12,13 respectively. Determination of the haliclorensin moiety in 2 left C22H14N3O4 (including the adjoining N-atom) with 17 degrees of unsaturation to be accounted for. […] Indeed, acetylation of 2, with a 1:1 mixture of Ac2O/pyridine, overnight at room temperature., afforded a very unstable tetra phenol acetate (3), on the basis of the HREIMS which gave the suitable molecular ion and also four subsequential losses of 42 mass units, and no loss of 60 mass units^13. The four phenol acetate groups were in full agreement with the 1773 cm^−1 IR absorption and the new methyls in the proton NMR. […]

[4] = Cytotoxic activity, test not specified; assay type: cell-based; conditions: qualitative statement, cell line not given

SMILES | IC50 (P-388 murine leukemia) [µg/mL] | IC50 [1] [µg/mL] | IC50 ([1]; Homo sapiens, A549, 72 h, read-out: IC50) [µg/mL] | IC50 [2] [µg/mL] | IC50 ([2]; Homo sapiens, HT-29, 72 h, read-out: IC50) [µg/mL] | IC50 (MEL-28 human melanoma) [µg/mL] | stability to light and air [3] | cytotoxic activity [4]
CC1CCCCCCCN(CCCn2cc(-c3cc(O)c(O)c4ncccc34)c(-c3cc(O)c(O)c4ncccc34)c2)C1 (centres unmarked) [Halitulin, halitulin] | 0.025 (≈ 0.043 µM) | 0.0125 (≈ 0.0215 µM) | 0.012 (≈ 0.0207 µM) | 0.0125 (≈ 0.0215 µM) | 0.012 (≈ 0.0207 µM) | 0.025 (≈ 0.043 µM) | sensitive to light and air | 
CC1CCCCCN(CCCN)C1 (centres unmarked) [haliclorensin, N-(3′-arninopropyl)-3-methylazacyclodecane] |  |  |  |  |  |  |  | inactive
